# Source: paper PMC8457121, “From Kinase Inhibitors to Multitarget Ligands as Powerful Drug Leads for Alzheimer's Disease using Protein‐Templated Synthesis” (Angewandte Chemie (International Ed. in English), 2021)
# What was measured:
# BACE1 [1] = molecular target: T1, BACE1 (Homo sapiens, UniProt P56817); assay: BACE1 enzymatic assay (FRET); assay type: biochemical
# Description: BACE1 enzymatic assay. BACE1 in vitro assays were carried out using FRET.
# μM) carrying the Swedish mutation and containing a rhodamine as a fluorescence donor and a quencher acceptor at each end was used. The intact substrate is weakly fluorescent and becomes highly fluorescent upon enzymatic cleavage.
# The assays were conducted in 50 mM sodium acetate buffer, pH 4.5, in a final
# BACE1 [2] = molecular target: T1, BACE1; assay: Evaluation of BACE inhibitors kinetics (Lineweaver-Burk); assay type: biochemical; details: different concentrations of substrate and compound
# Description: enzyme concentration (1 U/mL). Inhibitor screening at 10 μM. The mixture was incubated for 60 min at 25 °C under dark conditions and then stopped with 2.5 M sodium acetate. Fluorescence was measured with a FLUOstar Optima (BMG
# Labtechnologies GmbH, Offenburg, Germany) microplate reader at 545 nm excitation and 585 nm emission.
# Evaluation of BACE Inhibitors Kinetics. To evaluate the mechanism of BACE1 inhibition of the compounds, substrate-dependent kinetic experiments were performed. BACE activity were measured at five different concentrations substrate (1000 -62,5 µM) in the absence or presence of the select inhibitor at two different concentrations. The results are presented as double reciprocal Lineweaver−Burk plots (1/V vs 1/[S]) Figure S1.
# Cell culture and treatments. SK-N-MC cells stably expressing the human isoform APP695 (SK-APP cell line D1; SKAPP-D1) were generated by transfection of SK-N-MC cells with a pCDNA3-APP expression vector, and kindly provided by Dr. MJ Bullido. These cells were cultured in DMEM (Thermo Fisher) medium supplemented with 10% FBS (Thermo Fisher), 1 mM glutamine (Sigma-Aldrich), and 100 unit/ml penicillin (Lonza) and […] streptomycin (Lonza).
# Cell cultures were maintained in a 5% CO2, humidified atmosphere at 37 °C. […]
# PAMPA-BBB test = assay type: in vitro ADME; details: PBS pH 7.4 with 5% DMSO
# Description: dissolved in 250 µL of DMSO (Sigma-Aldrich). 25 µL of these compound stock
# solutions were taken and 225 µL of DMSO and 4750 µL of PBS pH 7.4 buffer
# compound concentration in the range of 0.2 to 1.1 mM. Compounds to be
# µL of DMSO and 4750 µL of PBS pH 7.4 was carefully added to afford a final
# compound concentration in the range of 0.2 to 1.1 mM. Solutions were filtered
# using filter PDVF membrane units (diameter 30 mm, pore size 0.45 μm, Symta).
# 10 µL of each solution were taken and diluted 10-fold with PBS/DMSO (95/5) for
# HPLC-MS analysis. The acceptor 96-well plate (Multiscreen®, catalog no.
# MAMCS9610, Millipore) was filled with 180 µL of PBS/DMSO (95/5). The donor
# 96-well plate (Multiscreen® IP Sterile Plate PDVF membrane, pore size is 0.45
# M, catalog no. MAIPS4510, Millipore) was coated with 4 µL 20 mg·mL-1 of
# for 5 min and then 180 µL of each compound solution was added. Then the donor
# plate was put on the acceptor plate and kept for 2.5 h at room temperature. After
# incubation, samples were collected from the acceptor plate and diluted 10-fold
# with PBS/DMSO (95/5) for HPLC-MS analysis and compared to HPLC-MS of
# initial solutions. Absorbance peak of each compound was determined by MS
# detection and was used to calculate the concentration of compounds and
# Every sample was analysed in two independent
# runs. HPLC-MS was performed using a HPLC-MS equipment from Thermo
# Fisher coupled to a Finnigan TM LXQ TM detector. Each compound was
# analysed using a Sunfire column C18, 3.5 μm (50 mm x 4.6 mm) and acetonitrile
# and Milli-Q water (with 0.1% formic acid) as mobile phase. The standard gradient
# LRRK2 = molecular target: T2, LRRK2 (Homo sapiens, UniProt Q5S007); assay: LRRK2 inhibition enzymatic assay (Adapta, ThermoFisher); assay type: biochemical
# T2 construct: purchased ThermoFisher (assay run by the company)
# T2 sequence (Q5S007 whole entry): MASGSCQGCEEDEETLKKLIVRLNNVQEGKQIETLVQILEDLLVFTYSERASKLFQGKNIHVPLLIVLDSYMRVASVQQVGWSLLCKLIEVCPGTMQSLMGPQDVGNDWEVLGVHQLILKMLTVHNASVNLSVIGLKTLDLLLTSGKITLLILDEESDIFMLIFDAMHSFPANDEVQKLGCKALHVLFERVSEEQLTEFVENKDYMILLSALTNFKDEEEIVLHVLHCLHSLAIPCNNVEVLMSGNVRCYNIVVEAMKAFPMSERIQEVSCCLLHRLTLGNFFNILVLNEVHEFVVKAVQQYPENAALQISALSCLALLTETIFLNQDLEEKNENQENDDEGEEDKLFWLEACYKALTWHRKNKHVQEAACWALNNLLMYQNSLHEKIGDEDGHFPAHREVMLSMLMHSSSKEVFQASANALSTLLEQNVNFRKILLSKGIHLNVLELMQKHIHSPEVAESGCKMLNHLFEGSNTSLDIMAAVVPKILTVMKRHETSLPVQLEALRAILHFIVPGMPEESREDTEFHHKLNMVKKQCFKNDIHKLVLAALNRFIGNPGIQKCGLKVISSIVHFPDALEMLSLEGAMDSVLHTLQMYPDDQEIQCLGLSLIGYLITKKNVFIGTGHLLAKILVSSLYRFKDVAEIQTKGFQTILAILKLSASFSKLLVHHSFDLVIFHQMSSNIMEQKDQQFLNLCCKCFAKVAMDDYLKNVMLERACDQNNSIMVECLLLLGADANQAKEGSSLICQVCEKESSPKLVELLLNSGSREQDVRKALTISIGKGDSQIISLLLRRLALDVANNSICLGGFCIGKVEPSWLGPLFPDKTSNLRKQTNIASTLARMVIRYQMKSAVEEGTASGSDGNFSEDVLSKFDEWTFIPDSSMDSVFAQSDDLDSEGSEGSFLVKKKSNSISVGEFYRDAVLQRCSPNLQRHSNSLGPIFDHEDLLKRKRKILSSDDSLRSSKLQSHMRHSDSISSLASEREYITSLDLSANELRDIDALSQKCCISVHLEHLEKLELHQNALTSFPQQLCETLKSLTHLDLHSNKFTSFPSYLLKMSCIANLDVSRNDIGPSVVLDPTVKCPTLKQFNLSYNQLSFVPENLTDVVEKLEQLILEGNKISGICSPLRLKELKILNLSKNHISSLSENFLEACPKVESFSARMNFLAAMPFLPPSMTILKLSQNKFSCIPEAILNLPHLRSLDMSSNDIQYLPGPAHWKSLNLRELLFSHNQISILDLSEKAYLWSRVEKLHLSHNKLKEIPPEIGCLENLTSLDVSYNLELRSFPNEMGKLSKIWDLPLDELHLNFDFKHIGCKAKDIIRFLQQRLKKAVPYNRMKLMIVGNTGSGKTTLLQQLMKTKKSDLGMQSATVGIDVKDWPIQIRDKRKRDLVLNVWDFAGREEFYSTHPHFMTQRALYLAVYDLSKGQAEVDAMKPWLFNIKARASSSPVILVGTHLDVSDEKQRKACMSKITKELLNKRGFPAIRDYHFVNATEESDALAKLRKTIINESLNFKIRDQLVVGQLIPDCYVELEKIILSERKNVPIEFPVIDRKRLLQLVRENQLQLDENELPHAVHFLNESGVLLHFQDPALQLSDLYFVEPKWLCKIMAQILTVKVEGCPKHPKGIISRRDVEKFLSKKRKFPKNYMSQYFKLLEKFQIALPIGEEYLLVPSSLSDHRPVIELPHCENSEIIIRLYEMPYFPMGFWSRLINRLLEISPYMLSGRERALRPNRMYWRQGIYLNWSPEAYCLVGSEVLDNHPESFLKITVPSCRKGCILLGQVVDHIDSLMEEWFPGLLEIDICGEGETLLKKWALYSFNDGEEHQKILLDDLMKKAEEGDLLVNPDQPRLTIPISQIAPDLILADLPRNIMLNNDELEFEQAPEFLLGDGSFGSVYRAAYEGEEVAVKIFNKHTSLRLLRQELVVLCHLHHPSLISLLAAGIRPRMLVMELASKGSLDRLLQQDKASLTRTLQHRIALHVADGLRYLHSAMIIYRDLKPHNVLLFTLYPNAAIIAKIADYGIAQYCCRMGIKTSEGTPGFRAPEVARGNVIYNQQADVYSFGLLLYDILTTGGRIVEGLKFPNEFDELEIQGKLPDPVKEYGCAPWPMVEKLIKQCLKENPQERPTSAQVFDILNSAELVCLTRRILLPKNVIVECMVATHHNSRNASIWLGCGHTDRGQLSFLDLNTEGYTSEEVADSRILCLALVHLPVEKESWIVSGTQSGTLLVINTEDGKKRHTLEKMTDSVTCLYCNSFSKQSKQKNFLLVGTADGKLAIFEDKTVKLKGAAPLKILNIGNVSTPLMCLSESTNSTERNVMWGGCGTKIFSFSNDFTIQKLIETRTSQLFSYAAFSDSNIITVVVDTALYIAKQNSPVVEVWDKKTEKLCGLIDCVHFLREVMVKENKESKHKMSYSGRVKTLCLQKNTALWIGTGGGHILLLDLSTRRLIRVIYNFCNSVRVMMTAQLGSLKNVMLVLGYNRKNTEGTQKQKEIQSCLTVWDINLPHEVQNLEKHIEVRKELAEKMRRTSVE
# SK-APP cells = assay: Aβ40 and Aβ42 levels in SK-APP cells (sandwich ELISA); assay type: cell-based, human; details: 10 μM, 48 h treatment
# Description: page 35: enzyme concentration (1 U/mL). Inhibitor screening at 10 μM. The mixture was incubated for 60 min at 25 °C under dark conditions and then stopped with 2.5 M sodium acetate. Fluorescence was measured with a FLUOstar Optima (BMG Labtechnologies GmbH, Offenburg, Germany) microplate reader at 545 nm excitation and 585 nm emission. Evaluation of BACE Inhibitors Kinetics. To evaluate the mechanism of BACE1 inhibition of the compounds, substrate-dependent kinetic experiments were performed. BACE activity were measured at five different concentrations substrate (1000 -62,5 μM) in the absence or presence of the select inhibitor at two different concentrations. The results are presented as double reciprocal Lineweaver-Burk plots (1/V vs 1/[S]) Figure S1. Cell culture and treatments. SK-N-MC cells stably expressing the human isoform APP695 (SK-APP cell line […]1) were generated by transfection of SK-N-MC cells with a pCDNA3-APP expression vector, and kindly provided by Dr. MJ Bullido. These cells were cultured in DMEM (Thermo Fisher) medium supplemented with 10% FBS (Thermo Fisher), 1 mM glutamine (Sigma- Aldrich), and 100 unit/ml penicillin (Lonza) and […] streptomycin (Lonza). Cell cultures were maintained in a 5% CO2, humidified atmosphere at 37 °C. SH-SY5Y cells were obtained from the American Type Culture Collection and grown in DMEM media (Gibco), supplemented with 10% foetal bovine serum, and 1% penicillin/streptomycin (Invitrogen). The cells were grown at 37 °C in a humidified 5% CO2 atmosphere. For the treatments, all the compounds were dissolved in dimethyl sulfoxide (DMSO, from Sigma) at an initial stock concentration of 10 mM. […] working solutions were obtained from the dilution of the stock solutions in DMEM media (DMSO control solutions were prepared similarly to the compounds). Okadaic acid (OA, Sigma-Aldrich) was dissolved in DMSO at an initial stock concentration of 60 μM and a 250X working solution was obtained from the dilution of the stock solution in DMEM. All the compounds (250x solutions) were added directly into the wells at the indicated final concentrations for 1 hour before the treatment with OA at a final concentration of 30 nM. DMSO was added at the appropriate concentration to the 34 page 36: control-untreated cells. The cells were maintained in the presence of the OA and the different compounds for 24h. Measurement of cell viability. Cell viability assays were carried out using a 3- […] (Sigma-Aldrich) in 96-well cell culture plates. All cells were then incubated with a 0.5 mg/ml MTT solution (Sigma-Aldrich) at 37 °C for 4 h and then with cell lysis […] The absorbance values were determined at 590 nm. Cell viability was expressed as a percent of OD of control cells, the value of which was defined as 100%. Cell viability in SH-SY5Y were carried out following the same procedure but seeding the cells in 24 well multiplates. Absorbance was measured using a Varioskan Flash multiplate reader (Thermo Scientific) at test 550 nm and reference 664 nm wave-lengths. Compound concentration for SK-APP line was 10 μM and for the SH-SY5Y was 1 and 5 μM. Immunoassays. Levels of Aβ40 and Aβ42 were quantified by sandwich ELISAs (Wako, Osaka, Japan) from cellular lysates and conditioned media collected. CNS penetration: in vitro PAMPA-BBB test. Prediction of the brain penetration was evaluated using a parallel artificial membrane permeability assay (PAMPA).1 Nine quality control compounds (mentioned below) of know BBB permeability were included in each experiment to validate the analysis set.2 Commercial drugs […] dissolved in 250 μL of DMSO (Sigma-Aldrich). 25 μL of these compound stock solutions were taken and 225 μL of DMSO and 4750 μL of PBS pH 7.4 buffer were added to reach 5% of DMSO concentration in the experiment and a final […] Compounds to be determined their ability to pass the brain barrier (0.5-1 mg) were dissolved in 250 μL of DMSO and 4750 μL of PBS pH 7.4 was carefully added to afford a final […]
# T1 sequence (P56817 46-501): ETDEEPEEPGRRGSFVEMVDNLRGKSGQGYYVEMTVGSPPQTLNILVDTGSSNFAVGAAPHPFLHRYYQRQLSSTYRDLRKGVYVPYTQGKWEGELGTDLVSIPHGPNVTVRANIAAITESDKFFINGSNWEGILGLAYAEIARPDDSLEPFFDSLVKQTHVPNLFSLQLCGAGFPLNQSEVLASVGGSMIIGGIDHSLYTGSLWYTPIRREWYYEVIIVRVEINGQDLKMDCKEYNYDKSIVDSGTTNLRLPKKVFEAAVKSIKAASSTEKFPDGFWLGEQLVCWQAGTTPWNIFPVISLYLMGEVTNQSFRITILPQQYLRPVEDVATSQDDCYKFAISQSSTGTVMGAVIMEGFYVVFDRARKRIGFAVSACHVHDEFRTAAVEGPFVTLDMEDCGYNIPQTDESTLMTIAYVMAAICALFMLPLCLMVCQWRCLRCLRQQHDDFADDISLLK
smiles,measurement,setting,value
O=C(Nc1nc2ccccc2s1)c1ccc(Cn2cc(COc3ccc(C(=O)Nc4nc5ccccc5s4)cc3)nn2)cc1 [compound 8],IC50,BACE1 [1],3.72 µM
same,melting point,,280 to 282 °C (dec.)
same,Behavior in the inhibition of BACE1 (Lineweaver–Burk double reciprocal plot),BACE1 [2],substrate‐competitive
same,Solubility in the conditions of the PAMPA experiment,PAMPA-BBB test,insoluble
same,IC50,LRRK2,1.83 µM
same,Aβ40 levels in cellular lysates,SK-APP cells,reducing
same,Aβ40 levels in extracellular fluid,SK-APP cells,reducing
same,Aβ42 levels in extracellular fluid,SK-APP cells,reducing
